# Assay results taken from patent US20100260673A1, “PHAGE DISPLAY PEPTIDE PROBES FOR IMAGING EARLY RESPONSES TO ANTIANGIOGENIC TREATMENT” (priority 2009, published 2010).
# Read-outs that look alike come from different tables or passages of the source. Where a SMILES comes first, the peptide text is derived from it. Where no end group is shown, it is not given here. The star is where a group is joined. Propanoyl(2-F) = CC(F)C(=O)*
# What was measured:
# [1] = test system: LS174T human colorectal cancer; experiment: Tumor growth study; type: in vivo, mice
# Experimental: Animal Models: Female athymic nude mice (nu/nu) were obtained from Harlan (Indianapolis, Ind.) at 6-8 weeks of age and were kept under sterile conditions. The LS174T or 22B cells were harvested and suspended in sterile PBS at a concentration of 5×10^7 viable cells/ml. Viable tumor cells (5×10^6) in sterile PBS (100 μL) were injected subcutaneously into the right shoulder. […] Tumor growth was followed by caliper measurements of perpendicular measures of the tumor. The tumor volume was estimated by the formula: tumor volume=a×(b2)/2, where a and b were the tumor length and width respectively in mm.
# [2] = test system: 4T1 murine breast cancer cells; settings: 4T1, 48 h incubation, various concentrations
# Experimental: (§1) Toxicity of AVP on Cell Viability by MTT Assay: MTT (3-(4,5-dimethylthiazolyl-2)-2,5-diphenyltetrazolium bromide; ATCC) assays were used to measure cell viability. Three thousand tumor cells or HUVECs were seeded per well in a 96-well plate and allowed to incubate for 24 h. After incubation with various concentrations of peptide AVP for 48 h, 10 μl of MTT reagent was added to each well. Four hours later, when the purple precipitate became visible, the supernatant was discarded, and 100 μl of DMSO was added to each well and the plate was shaken in the dark for 10 min at room temperature. The absorbance at 570 nm was then measured using a microplate reader (Tecan).
# [3] = test system: LS174T human colorectal cancer cells; settings: 48 h incubation, various concentrations
# Experimental: as §1
# [4] = test system: human umbilical vein endothelial cells (HUVEC); settings: 48 h incubation, various concentrations
# Experimental: as §1
# [5] = test system: LS174T tumor; settings: Bevacizumab-treated mice
# [6] = test system: 4T1 tumor; settings: Bevacizumab-treated mice
# [7] = test system: 22B tumor; settings: Bevacizumab-treated mice, 4T1 and 22B in the same animal
# [8] = test system: tumor that responds to the anti-angiogenic drug ZD4190 therapy; settings: ZD4190-treated
# From the text: Two-dimensional NIR fluorescence images were acquired at various time points after injection using a Maestro in vivo imaging system (CRI, Woburn, Mass.; IRdye800 excitation=735 nm, emission=780 nm long pass).
# [9] = test system: LS174T tumor; settings: mouse, in vivo
# Experimental: The 4T1 cells were harvested from the tumor and suspended in sterile PBS at a concentration of 2×10^7 viable cells/mL.
# Tumor Growth Study: When palpable tumors (150-200 mm^3) were present in all animals, mice were randomly divided into two groups (n=10/group). Cancer therapy response was evaluated in LS174T human colorectal cancer, 4T1 murine breast cancer and 22B human head-neck cancer models. […] The mouse body weight and tumor volume were measured every 3 days for up to 20 days before euthanasia.
# Small Animal PET Imaging: A detailed procedure for positron emission tomography (PET) imaging has been reported earlier (Li et al., (2008) J. Nucl. Med. 49: 453-461). Briefly, PET scans were performed using a microPET R4 rodent model scanner (Siemens Medical Solutions). […] The images were reconstructed by a two-dimensional ordered subsets expectation maximum (OSEM) algorithm with no attenuation or scatter correction. For each microPET scan, regions of interest (ROIs) were drawn over the tumor by using vendor software ASI Pro 5.2.4.0 on decay corrected whole-body coronal images. Assuming a tissue density of 1 g/ml, the ROIs were converted to MBq/g/min using a conversion factor, and then divided by the administered activity to obtain an imaging ROI-derived percent injected dose per gram (% ID/g).
# [10] = for metabolic stability in vivo: urine after 1 hr
# Experimental: Metabolic Stability of AVP Peptide: Nude mice bearing LS174T tumor xenografts were intravenously injected with 3.7 MBq of ^18F-FP-AVP. Urine samples were collected 1 h after tracer injection and analyzed by HPLC.
# Radiochemistry: Semi-preparative reversed-phase high performance liquid chromatography (RPHPLC) using a Vydac protein and peptide column (218TP510; 5 μm, 250×10 mm) was performed on a Dionex 680 chromatography system with a UVD 170U absorbance detector and model 105S single-channel radiation detector (Carroll & Ramsey Associates). The recorded data were processed using Chromeleon version 6.50 software. With a flow rate of 5 ml/min, the mobile phase was changed from 95% solvent A [0.1% trifluoroacetic acid (TFA) in water] and 5% B [0.1% TFA in acetonitrile] (0-2 min) to 35% solvent A and 65% solvent B at 32 min. […] C18 Sep-Pak cartridges (Waters) were pretreated with ethanol and water before use.
molecule,measurement,setting,value
Bevacizumab (AVASTIN™): recombinant humanized monoclonal IgG1 antibody that binds human VEGF,additional time after imaging until statistically significant change in tumor volume versus saline control,"[1]; LS174T and 22B tumor models, imaging on fifth day of treatment",5 to 6 days
same,difference in tumor volume between treatment and control groups,"[1]; fifth day following the start of treatment, 1 day after three doses",no difference
LLADTTHHRPWT [AVP],effect on cells (MTT),[2],little effect
same,effect on cells (MTT),[3],little effect
same,effect on cells (MTT),[4],little effect
same,concentration in LS174T tumor,[5],is concentrated
same,concentration in / binding to 4T1 tumor,[6]; listed as AVP peptide,no binding
same,concentration in / binding to 4T1 tumor,[6]; listed as Bevacizumab (AVASTIN™)-responsive peptide,not concentrated
same,concentration in 22B tumor,[7],is concentrated
same,concentration in tumor responding to ZD4190 therapy,[8],concentrated
CC(C)C[C@H](NC(=O)C(C)F)C(=O)N[C@@H](CC(C)C)C(=O)N[C@@H](C)C(=O)N[C@@H](CC(=O)O)C(=O)N[C@H](C(=O)N[C@H](C(=O)N[C@@H](Cc1c[nH]cn1)C(=O)N[C@@H](Cc1c[nH]cn1)C(=O)N[C@@H](CCCNC(=N)N)C(=O)N1CCC[C@H]1C(=O)N[C@@H](Cc1c[nH]c2ccccc12)C(=O)N[C@H](C(=O)O)[C@@H](C)O)[C@@H](C)O)[C@@H](C)O (some centres unmarked) [18F-FP-AVP] ({Propanoyl(2-F)}-LLADTTHHRPWT-OH),"microPET tumor uptake, Avastin treated versus control PBS treated tumors",[9],significantly higher uptake
same,metabolic stability in vivo,[10],good metabolic stability
same,metabolic stability in vivo,[10]; listed as 18F-labeled Bevacizumab (AVASTIN™)-responsive peptide,minimal degradation or metabolism
same,intact tracer in urine,"[10]; urine sample 1 h after i.v. injection, HPLC",about 90%
